From patent US12331048B2, “Pyrido-[3,4-d]pyridazine amine derivatives useful as NLRP3 inhibitors” (Ventus Therapeutics U.S., Inc., priority 2022, dated 2025) come the findings set out here.

One data set has as its target T1, NLRP3 (Homo sapiens, UniProt Q96P20).
T1 construct: endogenous in cells
As to the kind of experiment: Human whole blood (hWB) NLRP3 assay. The data set is classed as cell-based. As to conditions: LPS priming 1 μg/ml, ATP activation, read-out: hWB IC50 (raw activity data). As for the experimental part:
Heparin lithium coated tubes were used to collect blood from volunteers. Blood samples were distributed on 96 well plates using 90 μl per well. Priming was performed by adding 5 μl of LPS (O26:B6; Sigma L-2654) at a final concentration of 1 μg/ml for 4.5 hours in a humidified incubator with 37° C., 5% CO2. Thirty minutes prior to NLRP3 activation, 5 μl of a 20× compound solution or vehicle (2% DMSO) was added to each well and plates were incubated on a shaker (450 rpm) in a humidified incubator with 37° C., 5% CO2. Activation was then performed by adding 3.3 μl of a 31×ATP solution per well. At the end of the 30 minutes stimulation, the plates were centrifuged (800 g, 10 min. room temperature) and the plasma from each well was frozen at −80° C. […] levels in the supernatant were analyzed using a mesoscale discovery assay (MSD K151TUK) according to the manufacturers' instructions. Human whole blood was drawn from healthy volunteers after obtaining written informed consent.
Table D assigns each compound a code for potency in the human whole blood (hWB) NLRP3 Assay: A or B. According to the code. […] The corresponding raw activity data is also included.

Data set [1] in a line: Brain levels (kp and kpu,u) after oral administration. The format is in vivo, CDI mice. As to conditions: mice, 20 mpk PO; for Kp at 24 h / Kpu,u (unbound brain-to-plasma ratio): CDI, mouse, brain / plasma, po, 20 mg/kg; for Kp at 24 h: whole brain AUC over 24 h divided by plasma AUC; for Kpu,u (unbound brain-to-plasma ratio) / kpu,u (code): kp corrected with mouse plasma protein binding and mouse brain homogenate binding. The method, then: The in vivo total brain to plasma ratio was assessed in CDI mice after oral administration of the compound. Blood was collected at several timepoints up to 24 h, and transferred into plastic micro centrifuge tubes with EDTA-K2 as anticoagulant. Blood samples were centrifuged at 4000 g for 5 minutes at 4° C. to obtain plasma, then immediately frozen and stored at −75±15° C. prior to analysis. Animals were terminally anaesthetized with a rising concentration of CO2 gas at about 1 minute. At selected timepoints, whole brains were removed from the skull, rinsed in cold PBS to remove blood, dried with clean gauze, then frozen in liquid nitrogen and kept at −75±15° C. before analysis. At the time of analysis, brain samples were homogenized with PBS by tissue weight (g) to PBS volume (mL) ratio 1:3. Plasma and brain drug levels were quantified by LC/MS/MS on a AB Sciex Triple Quad 5500+ instrument, after separation on a HALO 160A ES-C18, 2.7 μm 2.1-50 mm column. Quantitation was performed using a calibration curve prepared in blank plasma or blank brain homogenate. The software WinNonlin (Phoenix™) was used for pharmacokinetic analysis from the concentrations versus time data, including the AUCinf and AUClast. The Kp ratio (total brain concentration over total plasma concentration) was calculated as (AUCtot,br)/(AUCtot,pl).
The unbound brain exposure was assessed as Kpuu, which is the free brain/free plasma concentration ratio (Cu,br/Cu,pl). The Cu,br/Cu,pl ratios were obtained from in vivo total brain to plasma ratios (Ctot,br/Ctot,pl) by using in vitro determined Fu,br and Fu,pl.
Plasma protein binding and brain homogenate protein binding were measured by equilibrium dialysis in a HTDialysis plate. The dialysis membranes were soaked in ultrapure water for 60 minutes to separate strips, then in 20% ethanol for 20 minutes, finally in dialysis buffer for 20 minutes. The dialysis set up was assembled according to the manufacturer's instruction. Each cell received 150 μL of plasma or brain homogenate spiked with 1 mM of compound, and dialyzed against an equal volume of dialysis buffer (PBS). The dialysis plate was sealed and incubated in an incubator at 37° C. with 5% CO2 at 100 rpm for 6 hours. At the end of incubation, compound concentration was measured in both chambers by LC-MS/MS on a Triple Quad™ 5500 from AB Inc after separation on a XSelect Hss T3 2.5μ (2.1×30 mm) column. Free fraction (Fu) was calculated as (Peak Area Ratio buffer chamber/Peak Area Ratio plasma chamber).
Kpuu was calculated as (AUCtot,br×Fu,br)/(AUCtot,pl×Fu,pl).
The below table also assigns each compound a code for kp and kpu,u values: A or B. According to the code. A represents a value of >0.3 and B represents a value of ≤0.3. […] The kpu,u was then calculated upon correcting this kp value with mouse plasma protein binding and mouse brain homogenates binding. A Kpu,u value >0.3 is brain penetrant, and Kpu,u value less than or equal to 0.3 is not brain penetrant. N.D.=not determined. The corresponding raw kp and kpu,u data is also included.

pIC50: −log10 of the molar value. Where two headings read alike, the source gives them in different places.

What is called pIC50 is −log10 of the IC50, conventionally taken in molar units. A word on the Kp: it is tissue or fluid exposure divided by exposure in the circulation.

T1 sequence (Q96P20 whole entry): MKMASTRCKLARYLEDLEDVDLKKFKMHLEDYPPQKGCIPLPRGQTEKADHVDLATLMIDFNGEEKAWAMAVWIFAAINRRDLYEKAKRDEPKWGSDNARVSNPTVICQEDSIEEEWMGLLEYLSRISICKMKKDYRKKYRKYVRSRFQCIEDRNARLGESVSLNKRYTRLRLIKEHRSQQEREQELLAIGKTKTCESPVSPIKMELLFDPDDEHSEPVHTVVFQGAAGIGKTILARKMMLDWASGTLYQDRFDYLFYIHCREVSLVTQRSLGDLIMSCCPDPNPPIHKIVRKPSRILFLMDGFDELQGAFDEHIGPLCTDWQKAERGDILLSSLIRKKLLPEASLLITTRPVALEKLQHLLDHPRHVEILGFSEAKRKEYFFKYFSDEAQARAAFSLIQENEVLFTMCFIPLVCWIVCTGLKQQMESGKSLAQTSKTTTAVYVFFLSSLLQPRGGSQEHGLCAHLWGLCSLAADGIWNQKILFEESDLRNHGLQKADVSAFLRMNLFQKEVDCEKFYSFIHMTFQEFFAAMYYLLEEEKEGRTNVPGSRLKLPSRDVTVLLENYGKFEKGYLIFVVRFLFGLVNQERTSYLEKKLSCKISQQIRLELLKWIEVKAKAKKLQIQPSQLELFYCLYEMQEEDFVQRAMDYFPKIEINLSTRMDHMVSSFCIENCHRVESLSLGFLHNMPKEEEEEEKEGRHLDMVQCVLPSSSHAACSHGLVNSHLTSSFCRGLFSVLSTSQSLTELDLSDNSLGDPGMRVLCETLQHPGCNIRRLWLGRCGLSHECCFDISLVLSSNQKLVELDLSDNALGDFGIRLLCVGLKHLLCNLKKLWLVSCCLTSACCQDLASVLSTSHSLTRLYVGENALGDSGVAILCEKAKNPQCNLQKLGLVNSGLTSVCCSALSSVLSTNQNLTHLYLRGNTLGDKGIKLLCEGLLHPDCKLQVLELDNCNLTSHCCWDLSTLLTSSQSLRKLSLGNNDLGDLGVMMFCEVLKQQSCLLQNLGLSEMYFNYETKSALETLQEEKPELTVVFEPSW

Turning to `CC1(C)CC[C@@H](Nc2nnc(-c3ccc(C(F)F)cc3O)c3ccncc23)CO1` (single isomer, unassigned) [Compound 20B], the pIC50 at NLRP3 was 5.47.
As for `Oc1cc(C(F)(F)F)ccc1-c1nnc(N[C@H]2COC3(CC3)C2)c2cnccc12` (single isomer, unassigned) [Compound 19], the pIC50 on NLRP3 was 5.85. For the same molecule, the concentration ratio (Kp) at 24 h in data set [1] (read-out: kp (code)) was greater than 0.3; in data set [1] (read-out: kp (raw)), 1.4. Also, the Kpu,u (unbound brain-to-plasma ratio) in data set [1] is 0.81. The “kpu,u (code)” value in data set [1] is “A (A represents a value of >0.3)”.
Consider `Cc1ccc(-c2nnc(N[C@@H]3CCOC(C)(C)C3)c3cnccc23)c(O)c1` (single isomer, unassigned) [Compound 14B], for which the pIC50 at NLRP3 is 5.44.
On the same count and under the same terms, the figure for `CC1(C)C[C@H](Nc2nnc(-c3ccc(C(F)(F)F)cc3O)c3ccncc23)CCO1` (single isomer, unassigned) [Compound 11B*] is 5.00; for `Cc1ccc(-c2nnc(N[C@@H]3COC(C)(C)C3)c3cnccc23)c(O)c1F` (single isomer, unassigned) [Compound 12B] it is 5.49.
The same measure, in the same setting: the same measure for `Cc1ccc(-c2nnc(N[C@@H]3COC(C)(C)C3)c3cnccc23)c(O)c1` [Compound 5B, (S)-2-(4-((5,5-dimethyltetrahydrofuran-3-yl)amino)pyrido[3,4-d]pyridazin-1-yl)-5-methylphenol]: 6.68.
With `CC1(C)C[C@@H](Nc2nnc(-c3ccc(C(F)F)cc3O)c3ccncc23)CCO1` (single isomer, unassigned) [Compound 16*], the pIC50 at NLRP3 is 5.74. For the same molecule, the figures for the Kp at 24 h in data set [1] (read-out: kp (code)) and in data set [1] (read-out: kp (raw)) were greater than 0.3 and 0.48, respectively. Also, the Kpu,u (unbound brain-to-plasma ratio) in data set [1] was determined as 0.59. In addition, in data set [1], the “kpu,u (code)” value was “A (A represents a value of >0.3)”.
Take `CC1(C)C[C@H](Nc2nnc(-c3ccc(C(F)F)cc3O)c3ccncc23)CCO1` (single isomer, unassigned) [Compound 16B*]: the pIC50 at NLRP3 is 4.92.
As for `Cc1cc(O)c(-c2nnc(N[C@@H]3COC(C)(C)C3)c3cnccc23)c(Cl)c1` (single isomer, unassigned) [Compound 26B*], the pIC50 at NLRP3 is 5.89.
Regarding `CC1(C)C[C@H](Nc2nnc(-c3ccc(C(F)F)cc3O)c3ccncc23)CO1` (single isomer, unassigned) [Compound 23B], the Kp at 24 h in data set [1] (read-out: kp (code)) is no more than 0.3. For the same molecule, the partition ratio (Kp) at 24 h in data set [1] (read-out: kp (raw)) was 0.28. In data set [1], the Kpu,u (unbound brain-to-plasma ratio) was found to be 0.09 and the “kpu,u (code)” value is on record as “B (B represents a value of ≤0.3)”.
With `Cc1ccc(-c2nnc(N[C@@H]3CCOCC3(C)C)c3cnccc23)c(O)c1` (single isomer, unassigned) [Compound 13B], the pIC50 at NLRP3 was 5.01.
Still for that read-out and setting: the figure for `CC1(C)COC[C@H]1Nc1nnc(-c2ccc(Cl)cc2O)c2ccncc12` (single isomer, unassigned) [Compound 1B*] is 5.74.
As for `CC1(C)C[C@@H](Nc2nnc(-c3ccc(C(F)F)cc3O)c3ccncc23)CO1` (single isomer, unassigned) [Compound 23], the pIC50 at NLRP3 is 6.92. For the same molecule, the Kp at 24 h in data set [1] (read-out: kp (code)) is no more than 0.3. The Kp at 24 h in data set [1] (read-out: kp (raw)) turned out to be 0.24. Also, in data set [1], the Kpu,u (unbound brain-to-plasma ratio) was found to be 0.33 and the “kpu,u (code)” value is recorded as “A (A represents a value of >0.3)”.
In the same order, the values of `C[C@H]1C[C@H](Nc2nnc(-c3ccc(Cl)cc3O)c3ccncc23)CCO1` (single isomer, unassigned) [Compound 25C*] are 5.85, greater than 0.3, 0.65, 0.099 and “B (B represents a value of ≤0.3)”.
The corresponding values for `CC1(C)OCC[C@H]1Nc1nnc(-c2ccc(C(F)(F)F)cc2O)c2ccncc12` (single isomer, unassigned) [Compound 22] are 6.02, greater than 0.3, 1.1, 0.34 and “A (A represents a value of >0.3)”.
The corresponding values for `Cc1ccc(-c2nnc(N[C@H]3CCC(C)(C)OC3)c3cnccc23)c(O)c1` (single isomer, unassigned) [Compound 10*] are 5.85, greater than 0.3, 0.35, 0.51 and “A (A represents a value of >0.3)”.
As to `CN1CCO[C@H](CNc2nnc(-c3ccc(C(F)(F)F)cc3O)c3ccncc23)C1` (single isomer, unassigned) [Compound 6B*], the negative-log IC50 (pIC50) at NLRP3 was 5.90.
For the molecule `CC1(C)C[C@@H](Nc2nnc(-c3ccc(C(F)(F)F)cc3O)c3ccncc23)CCO1` (single isomer, unassigned) [Compound 11*], on NLRP3, the pIC50 is 5.85. For the same molecule, the Kp at 24 h in data set [1] (read-out: kp (code)) is greater than 0.3. Also, in data set [1] (read-out: kp (raw)), the Kp at 24 h was determined as 0.96. In data set [1], the Kpu,u (unbound brain-to-plasma ratio) was 1.3 and the “kpu,u (code)” value is listed as “A (A represents a value of >0.3)”.
`C[C@H]1COCC[C@@H]1Nc1nnc(-c2ccc(Cl)cc2O)c2ccncc12` (single isomer, unassigned) [Compound 18C*]: the pIC50 on NLRP3 is 5.92.
As to `CC1(C)OCC[C@@H]1Nc1nnc(-c2ccc(C(F)(F)F)cc2O)c2ccncc12` (single isomer, unassigned) [Compound 22B], the pIC50 on NLRP3 is 5.23.
For the molecule `CC1(C)COCC[C@H]1Nc1nnc(-c2ccc(Cl)cc2O)c2ccncc12` (single isomer, unassigned) [Compound 3B*], at NLRP3, the pIC50 was 4.96.
Regarding `Cc1ccc(-c2nnc(N[C@@H]3CCC(C)(C)OC3)c3cnccc23)c(O)c1` (single isomer, unassigned) [Compound 10B*], on NLRP3, the negative-log IC50 (pIC50) is 5.10.
Regarding `C[C@@H]1COCC[C@@H]1Nc1nnc(-c2ccc(Cl)cc2O)c2ccncc12` (single isomer, unassigned) [Compound 18D*], the pIC50 on NLRP3 is 5.21.
Still for that read-out and setting: the same measure for `C[C@H]1C[C@@H](Nc2nnc(-c3ccc(Cl)cc3O)c3ccncc23)CCO1` (single isomer, unassigned) [Compound 25B*]: 6.07; for `CC1(C)C[C@H](Nc2nnc(-c3ccc(Cl)cc3O)c3ccncc23)CCO1` (single isomer, unassigned) [Compound 4B*]: 5.77; for `Cc1cc(O)c(-c2nnc(N[C@@H]3COC(C)(C)C3)c3cnccc23)c(F)c1` (single isomer, unassigned) [Compound 21B]: 5.64.
For the molecule `Oc1cc(C(F)(F)F)ccc1-c1nnc(N[C@@H]2COC3(CC3)C2)c2cnccc12` (single isomer, unassigned) [Compound 19B], the pIC50 at NLRP3 is 5.92.
For the molecule `CC1(C)COCC[C@H]1Nc1nnc(-c2ccc(C(F)F)cc2O)c2ccncc12` (single isomer, unassigned) [Compound 17B], the pIC50 at NLRP3 was 5.62.
Regarding `CC1(C)COCC[C@H]1Nc1nnc(-c2ccc(C(F)(F)F)cc2O)c2ccncc12` (single isomer, unassigned) [Compound 15B], the pIC50 on NLRP3 is 4.74.
